Assay results as given in publication PMC9961272, “Ca^2+-Dependent and -Independent Calmodulin Binding to the Cytoplasmic Loop of Gap Junction Connexins” (International Journal of Molecular Sciences, 2023).
“Also recorded” adds a separate entry of the source.

How the values were obtained:
[1] = system: gap junction coupling in HUVEC; assay: Multiparametric scrape loading-dye transfer assay (Lucifer Yellow spread); assay type: cell-based, human; conditions: for LY spread after scratch wounding: 60 min pre-treatment, PMA 100 nM or 18ßGRR 100 µM, 15 min post-scratch; for LY spread in the absence of ionomycin stimulation: peptide 7 µM and 17.9 µM, 8 min pre-treatment + 8 min assay; for LY spread in the absence of ionomycin stimulation / LY spread after ionomycin pre-treatment in the presence of peptide: Ca2+-containing media; for LY spread after ionomycin pre-treatment in the presence of peptide: peptide 7 μM and 17.9 μM, 8 min + 8 min
Description: (§1) The assay is described in detail in [48]; it is an adaption of the traditional fluorescence microscopy-based scrape loading dye transfer (sl-dt) technique. Briefly, HUVEC in 24 well trays were rinsed into +Ca+Mg-PBS. The solution was then replaced with fresh +Ca+Mg-PBS supplemented with Lucifer Yellow (LY; 1 mg/mL), propidium iodide (PI; 15 μM) and Hoechst 33,342 (90 μM) (dye transfer buffer). Immediately after addition of the dye transfer buffer, 3 parallel cuts in the cell monolayer in the central part of each well in the 24 wells were made using a micro scalpel knife with a flat edge stainless steel blade. The cells were then incubated at 37 °C for 8 or 15 min, as specified, before being washed twice with +Ca+Mg-PBS to remove the dye transfer buffer and then fixed in 3% PFA in PBS. Fresh dye transfer buffer was used for each experiment and the plates were stored in the dark at 4 °C.
For quantitative analysis of dye transfer and cell viability, images were acquired from 2 to 3 regions within each cut (6–9 measurements per well) using an EVOS M5000 microscope (Invitrogen, Waltham, MA, USA) equipped with a 10 × 0.3 NA air objective and EVOS LED light cubes for bright field imaging, FITC, RedX and DAPI. Images were acquired sequentially and exported to ImageJ for processing.
Phorbol 12-myristate 13-acetate (PMA) or 18-β-glycyrrhetinic acid (18BGRR) was made up in dimethysulphoxide (DMSO) to a 10 mM or 50 mM stock, respectively, and diluted into HGM to a final concentration of 100 nM or 100 µM, respectively. Cells were incubated in PMA or 18BGRR acid containing solution for 60 min at 37 °C. The PMA or 18BGRR solution was then carefully removed and the cells were washed once in +Ca+Mg-PBS. The PBS was then replaced with the dye transfer buffer (see above) and immediately 3 parallel cuts were made in the cell monolayer in the central part of each well using a micro scalpel knife with a flat edge stainless steel blade. For each experiment drug treatments were carried out in triplicate wells each with 3 cuts per well. Cells were then processed as described above. For analysis of the Ca^2+ dependency of gap junction coupling, HUVEC were incubated in either +Ca+Mg-PBS (+Ca) or -Ca+Mg +0.2 mM EGTA (-Ca) containing PBS and stimulated with vehicle (0.001% DMSO), or 2 μM ionomycin for 8 min. Cells were then transferred to dye transfer buffer made using +Ca or −Ca PBS, supplemented with vehicle or 2 μM ionomycin, and 3 parallel cuts were made in cell monolayers in each well. Cells were incubated for a further 8 min prior to fixation. […] A stock solution of 3.6 mM was made to generate working concentrations of 6–18 µM.
Data analysis was carried out in the open-source-based software program Fiji ImageJ. A custom-made macro (Cut_Analyzer.ijm) published in the Supplementary Materials to [48] was used for the automated quantitation of gap junction intercellular communication using images acquired for the LY signal. Analysis of total cell number (Hoechst channel) and cell viability (propidium iodide channel) was made using custom made macros ([48] and Supplementary Methods).

HUVEC [2] = assay: Cell viability (PI+ cells) in dye transfer assay; assay type: cell-based; conditions: PMA 100 nM or 18ßGRR 100 µM, 60 min; % of PI+ cells
Description: as §1, with “The cells were then incubated at 37 °C for 8 or 15 min, as specified, before being washed twice with +Ca+Mg-PBS to remove the dye transfer buffer and then fixed in 3% PFA in PBS. Fresh dye transfer buffer was used for each experiment and the plates were stored in the dark at 4 °C.” left out
Data analysis was carried out in the open-source-based software program Fiji ImageJ. A custom-made macro (Cut_Analyzer.ijm) published in the Supplementary Materials to [48] was used for the automated quantitation of gap junction intercellular communication using images acquired for the LY signal. […]
Analysis of cell number. To determine the number of cells per field of view we counted the number of Hoechst stained nuclei using a simple macro (Nuclei count.ijm) recorded […]
Counting cell nuclei using Fiji ImageJ. […] Images were then converted to a mask, a Watershed applied to identify and separate overlapping nuclei and objects counted using the Analyze particles function. […]
Analysis of cell viability. […] Cell viability was expressed as the fraction of cells negative for PI. […]

HUVEC [3] = assay: Fura-2 epifluorescence imaging of [Ca2+]i; assay type: cell-based, human; conditions: ionomycin 2 µM, fura-2 loaded HUVEC
Description: HUVEC were grown on 24 mm square uncoated glass coverslips in growth medium. For Fura-2 loading, the cells were transferred into Hanks solution (140 mM NaCl, 5 mM KCl, 1.8 mM CaCl2, 2 mM MgCl2, 10 mM glucose, 10 mM HEPES-NaOH pH 7.4) supplemented with 2.5 µM Fura-2AM (Molecular Probes, Eugene, Oregon, USA) diluted from a stock solution of 5 mM Fura-2AM in DMSO with 2.0% Pluoronic F-127. Cells were incubated at room temperature in the dark for 20 min before being transferred into fresh Hanks solution and further maintained in the dark at RT until use. Cells were transferred to the stage of an Olympus IX71 inverted fluorescence microscope and maintained at 32–34 °C. The imaging system comprised an excitation monochromator (Optoscan, Cairn Research), U-Plan-Apo ×100 1.35 NA objective and an Ixon EMCCD camera (Andor). Fura-2 was illuminated sequentially with 355 ± 5 nm and 380 ± 5 nm light and wavelength switching synchronised with image capture using WinFluor software (Dr John Dempster, Strathclyde University). The EMCCD camera was operated in frame transfer mode at full gain and cooled to −70 °C. Full frame (512 by 512 pixels) images were acquired at 30 frames/s. Ionomycin was applied by droplet application.

CaM = CaM binding signals of Cx32 CT peptide
apo-DA-CaM = apo-DA-CaM (Homo sapiens, UniProt P0DP23, T111C/T35C); assay: Stopped-flow association and dissociation kinetics with apo-DA-CaM (with and without 15% TFE); conditions: 500 nM DA-CaM with 10 µM mTrp, 5 mM EGTA, mixed with 300 µM CaM, 20 °C
Description: We were interested to see if we can detect apo-CaM binding to Cx CL2 peptides using DA-CaM, the conformation of which is insensitive to [Ca^2+] changes, but which indicates changes in the distance between the N- and C-lobe with high sensitivity.
The kinetics of Ca^2+/DA-CaM and DA-CaM interactions with Cx CL2 peptides was measured using a TgK Scientific KinetAsyst™ double-mixing stopped-flow apparatus (TgK Scientific Ltd., Bradford-on-Avon, UK) in single mixing mode. The fluorescence was excited at 340 nm and the emission was detected by a photomultiplier tube with a long pass filter (>400 nm). […] All concentrations given are those in the mixing chamber. Data shown are averages of 3 to 5 repeats. All experiments were carried out at 20 °C. Data were analysed using Kinetic Studio software (TgK Scientific Ltd., Bradford-on-Avon, UK).

TA-CaM = TA-CaM (Homo sapiens, UniProt P0DP23); conditions: Ca2+ titration of TA-CaM alone or with peptide
Description: The binding curves were fitted to the Hill equation to obtain Kd and Hill coefficient values (n) (Table 2).
The fluorescence was corrected for dilution and [Ca^2+] concentration was calculated using Maxchelator software. The data were fitted to the Hill equation with specific binding (y = Bmax∗x^n/(Kd^n + x^n)) using GraphPad Prism 9.

Molecule	LY spread after scratch wounding [1]	Cell viability following drug treatments (HUVEC [2])	LY spread in the absence of ionomycin stimulation [1]	LY spread after ionomycin pre-treatment in the presence of peptide ([1]; ionomycin 2 µM)	further results
CC1(C)[C@@H](O)CC[C@]2(C)[C@H]3C(=O)C=C4[C@@H]5C[C@@](C)(C(=O)O)CC[C@]5(C)CC[C@@]4(C)[C@]3(C)CC[C@@H]12 [18ßGRR, 18-β-glycyrrhetinic acid]	significantly reduced LY spread	No evidence for decreased cell viability	–	–	–
CCCCCCCCCCCCCC(=O)O[C@@H]1[C@@H](C)[C@@]2(O)[C@@H](C=C(CO)C[C@]3(O)C(=O)C(C)=C[C@@H]23)[C@@H]2C(C)(C)[C@]12OC(C)=O [PMA, 12-phorbol 13-myristate acetate]	significantly reduced LY spread	No evidence for decreased cell viability	–	–	–
C[C@H](CCC(=O)O)C[C@H](C)C[C@H](C)C(=O)/C=C(\O)[C@H](C)C[C@H](C)C/C=C/[C@@H](C)[C@@H](O)[C@@H](C)[C@@H](O)C[C@@H]1CC[C@@](C)([C@H]2CC[C@@](C)([C@@H](C)O)O2)O1 [ionomycin]	–	–	–	–	Effect on LY spread when external Ca^2+ omitted ([1]; ionomycin 2 µM, 8 min, external Ca2+ omitted): greatly reduced; LY spread after scratch formation ([1]; ionomycin 2 µM, 8 min pre-treatment, external Ca2+ present, 8 min LY spread): significantly reduced the spread of LY; also recorded: completely blocked; Change in [Ca^2+]i (fura-2 ratio) (HUVEC [3]): initial fast increase in [Ca^2+]i
EINKLLSEQDGSLKDILRRS [Cx32 CT peptide]	–	–	–	–	CaM binding signal (CaM): unable to detect any signals indicating CaM binding
N-[myr]-RRKEQKTGHAVRAIGRE-amide [control peptide]	–	–	no significant difference in LY spread	significantly reduced LY spread	–
N-[myr]-RRKWQKTGHAVRAIGRL-amide [mTrp]	–	–	no significant difference in LY spread	reduced the inhibition of LY spread; also recorded: prevented the Ca^2+-induced block	Dissociation from apo-DA-CaM, fast phase (apo-DA-CaM): 130 s⁻¹; Dissociation from apo-DA-CaM, slow phase (apo-DA-CaM): 0.9 s⁻¹; Hill Coefficient n TA-CaM (TA-CaM): 1.3 ± 0.1
